Assay results published in PMC11588093, “MurA-catalyzed synthesis of 5-enolpyruvylshikimate-3-phosphate confers glyphosate tolerance in bryophytes” (Proceedings of the National Academy of Sciences of the …, 2024).

Experiments:
[1] = biological target: T1, MpMurA (Marchantia polymorpha, UniProt A0A2R6X746); test: phosphate release by malachite green; EPSP product by LC-MS/MS; type: biochemical; conditions: 1 mM S3P, 1 mM PEP; pH 7.5, 25 °C
T1 construct: gene MARPO_0032s0102; codon-optimised synthetic gene, E. coli BL21(DE3); His-tag removed with 3C protease; IMAC and SEC
T1 sequence (A0A2R6X746 46-482): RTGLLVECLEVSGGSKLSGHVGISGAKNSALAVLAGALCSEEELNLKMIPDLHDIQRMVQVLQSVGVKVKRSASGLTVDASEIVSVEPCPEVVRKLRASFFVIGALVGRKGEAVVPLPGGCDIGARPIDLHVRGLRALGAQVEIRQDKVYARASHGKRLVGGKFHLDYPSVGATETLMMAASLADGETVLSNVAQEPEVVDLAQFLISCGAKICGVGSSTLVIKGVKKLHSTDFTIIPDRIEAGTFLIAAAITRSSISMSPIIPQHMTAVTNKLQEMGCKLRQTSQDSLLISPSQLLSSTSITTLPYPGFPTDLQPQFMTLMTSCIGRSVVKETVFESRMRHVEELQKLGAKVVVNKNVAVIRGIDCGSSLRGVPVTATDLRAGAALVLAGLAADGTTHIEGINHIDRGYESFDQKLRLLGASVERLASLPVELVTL
Description: phosphate release by malachite green; EPSP product by LC-MS/MS on MpMurA | Phosphate was produced by MpMurA in the presence of […] and PEP

[2] = biological target: T1, MpMurA; test: phosphate release by malachite green; type: biochemical; conditions: 1 mM UDP-GlcNAc, 1 mM PEP; pH 7.5, 25 °C
[3] = biological target: T2, AtEPSPS (Arabidopsis thaliana, UniProt P05466); test: dose-response of enzyme activity, phosphate release by malachite green; type: biochemical
T2 construct: gene At2g45300; codon-optimised synthetic gene, E. coli BL21(DE3); His-tag removed with 3C protease; IMAC and SEC
T2 sequence (P05466 77-520): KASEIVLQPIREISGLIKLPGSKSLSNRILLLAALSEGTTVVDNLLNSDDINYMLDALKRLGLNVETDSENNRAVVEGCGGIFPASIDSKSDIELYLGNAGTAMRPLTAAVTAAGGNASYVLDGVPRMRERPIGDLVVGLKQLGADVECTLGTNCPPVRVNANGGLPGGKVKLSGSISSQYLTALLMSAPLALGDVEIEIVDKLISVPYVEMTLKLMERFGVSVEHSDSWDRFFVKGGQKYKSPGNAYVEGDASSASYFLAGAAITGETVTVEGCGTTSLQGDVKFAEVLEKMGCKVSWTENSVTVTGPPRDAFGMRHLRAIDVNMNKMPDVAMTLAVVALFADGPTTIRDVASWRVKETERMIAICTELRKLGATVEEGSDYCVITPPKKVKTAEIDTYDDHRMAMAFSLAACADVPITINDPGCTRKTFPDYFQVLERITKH

[4] = biological target: T3, MpEPSPS (Marchantia polymorpha, UniProt A0A2R6X5Y9); test: as above; type: biochemical
T3 construct: gene MARPO_0034s0104; codon-optimised synthetic gene, E. coli BL21(DE3); His-tag removed with 3C protease; IMAC and SEC
T3 sequence (A0A2R6X5Y9 79-527): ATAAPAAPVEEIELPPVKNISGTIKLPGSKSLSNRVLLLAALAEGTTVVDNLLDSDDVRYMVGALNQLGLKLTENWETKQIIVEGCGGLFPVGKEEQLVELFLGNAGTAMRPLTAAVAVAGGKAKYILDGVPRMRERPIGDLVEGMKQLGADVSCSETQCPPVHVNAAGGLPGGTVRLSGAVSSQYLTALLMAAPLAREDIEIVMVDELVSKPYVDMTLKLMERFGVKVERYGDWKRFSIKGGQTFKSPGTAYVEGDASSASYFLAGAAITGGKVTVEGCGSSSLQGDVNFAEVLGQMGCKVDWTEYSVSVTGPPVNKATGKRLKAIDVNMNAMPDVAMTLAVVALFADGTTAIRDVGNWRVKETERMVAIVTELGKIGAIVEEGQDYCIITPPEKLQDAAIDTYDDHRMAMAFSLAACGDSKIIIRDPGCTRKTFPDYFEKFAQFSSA

[5] = substrate: O=C(O)C1=C[C@@H](OP(=O)(O)O)[C@@H](O)[C@H](O)C1; test: Michaelis-Menten kinetics, phosphate release by malachite green; type: biochemical, Marchantia polymorpha; conditions: co-substrate PEP, pH 7.5, 25 °C
[6] = substrate: C=C(OP(=O)(O)O)C(=O)O; test: as above; type: biochemical, Marchantia polymorpha; conditions: co-substrate S3P, pH 7.5, 25 °C
[7] = substrate: C=C(OP(=O)(O)O)C(=O)O; test: purified protein; conditions: co-substrate S3P, pH 7.5, 25 °C
[8] = substrate: O=C(O)C1=C[C@@H](OP(=O)(O)O)[C@@H](O)[C@H](O)C1; test: Michaelis-Menten kinetics, phosphate release by malachite green; type: biochemical, Arabidopsis thaliana; conditions: co-substrate PEP, pH 7.5, 25 °C

With `O=C(O)C1=C[C@@H](OP(=O)(O)O)[C@@H](O)[C@H](O)C1` [S3P] the “phosphate release by malachite green; EPSP product by LC-MS/MS” value [1] was “Phosphate was produced by MpMurA in the presence of S3P and PEP”.

With `CC(=O)N[C@H]1[C@@H](OP(=O)(O)OP(=O)(O)OC[C@H]2O[C@@H](n3ccc(=O)[nH]c3=O)[C@H](O)[C@@H]2O)O[C@H](CO)[C@@H](O)[C@@H]1O` [UDP-GlcNAc] the “phosphate release by malachite green” value [2] was “the activity of MpMurA with its canonical substrates, UDP-GlcNAc and PEP, were measured”.

In the case of `O=C(O)CNCP(=O)(O)O` [glyphosate], the IC50 [3] is reported as 14.5 ± 5.98 µM and the IC50 [4] is reported as 9.6 ± 9.12 µM.

B1: MpEPSPS (Marchantia polymorpha) (protein)
chain: ATAAPAAPVEEIELPPVKNISGTIKLPGSKSLSNRVLLLAALAEGTTVVDNLLDSDDVRYMVGALNQLGLKLTENWETKQIIVEGCGGLFPVGKEEQLVELFLGNAGTAMRPLTAAVAVAGGKAKYILDGVPRMRERPIGDLVEGMKQLGADVSCSETQCPPVHVNAAGGLPGGTVRLSGAVSSQYLTALLMAAPLAREDIEIVMVDELVSKPYVDMTLKLMERFGVKVERYGDWKRFSIKGGQTFKSPGTAYVEGDASSASYFLAGAAITGGKVTVEGCGSSSLQGDVNFAEVLGQMGCKVDWTEYSVSVTGPPVNKATGKRLKAIDVNMNAMPDVAMTLAVVALFADGTTAIRDVGNWRVKETERMVAIVTELGKIGAIVEEGQDYCIITPPEKLQDAAIDTYDDHRMAMAFSLAACGDSKIIIRDPGCTRKTFPDYFEKFAQFSSA
notes: codon-optimised synthetic gene, E. coli BL21(DE3); His-tag removed with 3C protease; IMAC and SEC
In the case of B1, the Km [5] is reported as 119.7 ± 12.82 µM and the Km [6] is reported as 180 ± 26 µM.

B2: AtEPSPS (Arabidopsis thaliana) (protein)
chain: KASEIVLQPIREISGLIKLPGSKSLSNRILLLAALSEGTTVVDNLLNSDDINYMLDALKRLGLNVETDSENNRAVVEGCGGIFPASIDSKSDIELYLGNAGTAMRPLTAAVTAAGGNASYVLDGVPRMRERPIGDLVVGLKQLGADVECTLGTNCPPVRVNANGGLPGGKVKLSGSISSQYLTALLMSAPLALGDVEIEIVDKLISVPYVEMTLKLMERFGVSVEHSDSWDRFFVKGGQKYKSPGNAYVEGDASSASYFLAGAAITGETVTVEGCGTTSLQGDVKFAEVLEKMGCKVSWTENSVTVTGPPRDAFGMRHLRAIDVNMNKMPDVAMTLAVVALFADGPTTIRDVASWRVKETERMIAICTELRKLGATVEEGSDYCVITPPKKVKTAEIDTYDDHRMAMAFSLAACADVPITINDPGCTRKTFPDYFQVLERITKH
notes: as for B1
For B2, the Km [7] was 163 ± 34 µM and the Km [8] was 196.7 ± 44.63 µM.
